According to patent US6124293A, “Semi-synthetic ecteinascidins” (The Board of Trustees of the University of Illinois, priority 1999, dated 2000):

Tests used:
[1] = system: P388 murine leukemia, B16 melanoma, Lewis lung carcinoma, and several human tumor xenograft models; conditions: activity against P388, B16, Lewis lung, human tumor xenografts in mice; cited from earlier work
B16 melanoma = conditions: recent experiments, NCI evaluation; cited from earlier work
L1210 murine leukemia = assay: in vitro cytotoxicity to L1210 murine leukemia; assay type: cell-based; conditions: potency relative to Et 743
From the text: In view of the exceptional antitumor properties of the natural ecteinascidins, the present invention has studied the antitumor activities of the semi-synthetic analogs prepared herein.

SMILES	efficacy in vivo [1]	survivors 60 days following infection with B16 melanoma (B16 melanoma)	IC50 (Et 743)/IC50 (L1210 murine leukemia)
COc1c(C)cc2c(c1O)[C@H]1N[C@@H](C2)[C@H](O)N2[C@H]1[C@@H]1SC[C@]3(NCCc4c3[nH]c3ccccc43)C(=O)OC[C@H]2c2c3c(c(C)c(OC(C)=O)c21)OCO3 [Et 722]	promising efficacy in vivo	–	–
COc1cc2c(cc1O)CCN[C@]21CSC2c3c(OC(C)=O)c(C)c4c(c3C(COC1=O)N1C2C2NC(Cc3cc(C)c(OC)c(O)c32)[C@@H]1O)OCO4 (stereo partly drawn) [Et 729]	promising efficacy in vivo	8 of 10	10
COc1cc2c(cc1O)CCN[C@]21CSC2c3c(OC(C)=O)c(C)c4c(c3C(COC1=O)N1C2C2c3c(cc(C)c(OC)c3O)CC([C@@H]1O)N2C)OCO4 (stereo partly drawn) [Et 743]	promising efficacy in vivo	–	–
COc1cc2c(cc1O)CCN(C)[C@]21CSC2c3c(OC(C)=O)c(C)c4c(c3C(COC1=O)N1C2C2c3c(cc(C)c(OC)c3O)CC([C@@H]1O)N2C)OCO4 (stereo partly drawn) [Et 757]	–	–	50
COC(=O)C(C(=O)OC)[C@H]1C2Cc3cc(C)c(OC)c(O)c3C(C3C4SC[C@]5(NCCc6cc(O)c(OC)cc65)C(=O)OCC(c5c6c(c(C)c(OC(C)=O)c54)OCO6)N31)N2C (stereo partly drawn) [Et 875]	–	–	1
COc1cc2c(cc1O)CCNC21CSC2c3c(OC(C)=O)c(C)c4c(c3C(COC1=O)N1C(O)C3Cc5cc(C)c(OC)c(O)c5C(C21)N3Cc1ccc(CN2C3Cc5cc(C)c(OC)c(O)c5C2C2C5SCC6(NCCc7cc(O)c(OC)cc76)C(=O)OCC(c6c7c(c(C)c(OC(C)=O)c65)OCO7)N2C3O)cc1)OCO4 (stereo not drawn) [Et 1560]	–	–	0.25
COc1cc2c(cc1O)CCN(C)[C@]21CSC2c3c(OC(C)=O)c(C)c4c(c3C(COC1=O)N1C2C2NC(Cc3cc(C)c(OC)c(O)c32)[C@@H]1O)OCO4 (stereo partly drawn) [Iso-Et 743]	–	–	17
